According to patent publication US20060293227A1, “Cosmetic compositions and methods using transforming growth factor-beta mimics” (priority 2005, published 2006):
Where no end group is shown, it is not given here. [ ]: non-standard residue; d: D form. NMeA = CN[C@@H](C)C(=O)O; Abu = CC[C@H](N)C(=O)O; Aib = CC(C)(N)C(=O)O

Key:
[1] = tested on: Mv-1-Lu mink lung epithelial cells; assay: Inhibition of DNA synthesis ([3H]thymidine incorporation) of Mv-1-Lu mink lung epithelial cells; format: cell-based; settings: for Inhib by new peptide/Inhib by cytomodulin: 3H-thymidine incorporation, MV-1-Lu cells, cytomodulin at same concentration; for 3H-Radioactivity / % Inhibition of incorporation of 3H-thymidine: MV-1 Lu cells; for Inhibition of DNA synthesis / proliferation of Mv-1-Lu cells (in words): thymidine incorporation, cytomodulin at 10^-9 to 10^-6 M
Method: The effect of TGF-β and cytomodulin were evaluated by determining the rate of […] incorporation into total acid-insoluble DNA and cell number. See generally, Sampath et al., J. Biol. Chem., 267, pp. 20352-20362 (1992). DNA synthesis rates were determined in triplicate cultures after 24 hour treatment with various concentrations (10^−9 M to 10^−6 M) of either TGF-β or cytomodulin (which was synthesized by the Merrifield method) by adding [methyl-^3H]thymidine (2uCi/ml, 80 Ci/mmol) for 6 hours before the termination of the culture. Incorporation was terminated by aspiration of the medium, and after washing three times with phosphate-buffered saline, the trichloroacetic acid (10%)-precipitated radioactive DNA was extracted with 1.0% (w/v) sodium dodecyl sulfate, 0.1 M NaOH and quantitated by liquid scintillation counting. For cell number determination, 1×10^5 cells were plated in flasks in MEM containing 10% FBS, and after 24 hours, the growth medium was replaced with serum-free medium containing various conceptions of TGF-β and cytomodulin. Triplicate cultures were harvested every 24 hours for the duration of 7 days, and the cell number was determined by counting cells released by trypsin digestion in a fixed volume hemacytometer.
The numbers shown at the various concentration are the ratio of the inhibition rate of the peptide being tested over the inhibition rate of cytomodulin (SEQ ID NO: 1) at the same concentration.
Tests for bioactivity were conducted as described above for DNA inhibition. In summary, the cytomodulin analogs listed in Table 3 were all found active as agonists and thus, as defined herein, are considered TGF-β mimics.

skin [2] = tested on: skin; design: species or system human; settings: in vivo
Excerpt: A person, of light complexion, applied a lotion comprising cytomodulin (SEQ ID NO: 1) at a concentration of about 0.001%, in EUCERIN™, to one side of their face a at a frequency of 1-2 times per week, typically at night before sleep, leaving uncovered while leaving the other side of their face without application of the TGF-β lotion. […] For example, crows feet became more shallow and the skin and face looked fuller and smoother. Color and skin tone became more youthful in appearance. […] After 18 days of treatment, the difference in appearance between the treated and untreated sides of the face was noticeable enough that the subject began to apply the topical composition to the entire face.
The same subject applied the CM-1 lotion to the back of one hand daily, while leaving the back of the other hand untreated. The treatment continued for several weeks.

skin [3] = tested on: skin; design: species or system human; settings: in vivo; remark: listed apart in the source
Excerpt: A person, with very dry, wind-burnt skin, many fine lines, and the beginning of wrinkles, applied a lotion comprising cytomodulin (SEQ ID NO: 1) at a concentration of about 0.001% on left side of their face only, three days per week. […] Within 3 weeks there was a a noticeable difference between the two sides of the face, with the right side having more fine lines appearing much drier and weather-worn than the left (treated) side. […] The subject stopped application after 3 months because of the difference in the appearance of the two side of the face A person applied a lotion comprising cytomodulin (SEQ ID NO: 1) at a concentration of about 0.001% on right side of their neck only, daily. […] The right side of the neck is noticeably different than the left side of the neck. […] A person with noticebly wrinkled and thickened skin on the neck applied a lotion comprising cytomodulin (SEQ ID NO: 1) at a concentration of about 0.001% to their neck once every four days. The subject also used Lancome makeup with sunscreen and Oil of Olay moisturizer for sensitive skin.

eyelids = tested on: eyelids; design: species or system human; settings: in vivo
Excerpt: A person, applied a lotion comprising cytomodulin (SEQ ID NO: 1) at a concentration of about 0.001%, to their eyelids twice per week for 2 months.

NRK-49 F fibroblasts [4] = assay: Growth and colony formation by NRK-49 F fibroblasts in soft agar; format: cell-based; settings: 100 nM in Example 2, with EGF and PDGF
Method: The original assay for TGF-β, the ability to promote anchorage independent growth of normal fibroblasts is still one of the hallmarks of TGF-β activity. NRK-49 F fibroblasts were grown at 37° C. in DEM supplemented with 10% fetal calf serum. […] To this, either 100 nM TGF-β (positive control) or 100 nM cytomodulin was added. NRK49 F fibroblasts (5×10^4 cells/mi) were mixed with 0.3% agar were plated on the bottom of 35 mm culture dishes. Colony formation was observed starting on day 3 of culture.

[5] = tested on: human osteogenic sarcoma (HOS) cell line; assay: Expression of type I collagen, TGF-β, alkaline phosphatase and osteonectin in HOS cells; format: cell-based
TGF-β activity = assay: TGF-β like activity, overall statement from the assays used; format: cell-based; settings: by the assays used
human dermal fibroblasts = assay: Expression of type I collagen, TGF-β and collagenase in human dermal fibroblasts; format: cell-based; settings: for Expression of TGF-β / Expression of collagenase: human dermal fibroblasts; for Expression of type I collagen: human dermal fibroblasts (primary cultures of neo-natal cells for cytomodulin)
NRK-49 F fibroblasts [6] = settings: literature statement (Massagu, J. Biol. Chem. 1984); cited from earlier work

Substance: A-N-V-A-E-K (ANVAEK) [SEQ ID NO: 15]
- Inhib by new peptide/Inhib by cytomodulin ([1]; concentration 10 nM): 0.80
- Inhib by new peptide/Inhib by cytomodulin ([1]; concentration 100 nM): 1.00

Substance: ANVAENA [cytomodulin, Ala-Asn-Val-Ala-Glu-Asn-Ala]
- Negative effects of application (skin [2]): No negative effects
- Accidental contact of the lotion with the eyes (skin [3]): no apparent problem or irritation
- Adverse effects (skin [3]): No adverse effects
- Adverse effects (subject's report) (skin [3]): no adverse effects
- Adverse effects (eyelids): No adverse effects

Substance: L-(Abu)-A-E-A-K (L[Abu]AEAK) [SEQ ID NO: 6]
- 3H-Radioactivity ([1]; peptide 1 nM): 2.02 10^3 dpm
- % Inhibition of incorporation of 3H-thymidine ([1]; peptide 1 nM): 33%
- 3H-Radioactivity ([1]; peptide 5 nM): 1.97 10^3 dpm
- % Inhibition of incorporation of 3H-thymidine ([1]; peptide 5 nM): 35%

Substance: L-(Aib)-A-E-A-K (L[Aib]AEAK) [SEQ ID NO: 4]
- 3H-Radioactivity ([1]; peptide 5 nM): 2.31 10^3 dpm
- % Inhibition of incorporation of 3H-thymidine ([1]; peptide 5 nM): 35%
- 3H-Radioactivity ([1]; peptide 50 nM): 1.94 10^3 dpm
- % Inhibition of incorporation of 3H-thymidine ([1]; peptide 50 nM): 46%
- 3H-Radioactivity ([1]; peptide 100 nM): 1.44 10^3 dpm
- % Inhibition of incorporation of 3H-thymidine ([1]; peptide 100 nM): 60%
- 3H-Radioactivity ([1]; peptide 500 nM): 1.61 10^3 dpm
- % Inhibition of incorporation of 3H-thymidine ([1]; peptide 500 nM): 55%
- % Inhibition of incorporation of 3H-thymidine ([1]; peptide 1 mM (so in the source)): 27%
- 3H-Radioactivity ([1]; peptide 1 mM (so in the source), control without peptide 3.57): 2.60 10^3 dpm

Substance: L-I-(Nme-A)-E-A-K (LI[NMeA]EAK) [SEQ ID NO: 5]
- 3H-Radioactivity ([1]; peptide 1 nM): 1.61 10^3 dpm
- % Inhibition of incorporation of 3H-thymidine ([1]; peptide 1 nM): 47%
- 3H-Radioactivity ([1]; peptide 5 nM): 1.76 10^3 dpm
- % Inhibition of incorporation of 3H-thymidine ([1]; peptide 5 nM): 42%
- 3H-Radioactivity ([1]; peptide 50 nM): 1.60 10^3 dpm
- % Inhibition of incorporation of 3H-thymidine ([1]; peptide 50 nM): 41%
- 3H-Radioactivity ([1]; peptide 100 nM): 1.81 10^3 dpm
- % Inhibition of incorporation of 3H-thymidine ([1]; peptide 100 nM): 40%
- 3H-Radioactivity ([1]; peptide 500 nM): 1.42 10^3 dpm
- % Inhibition of incorporation of 3H-thymidine ([1]; peptide 500 nM): 53%

Substance: L-I-A-D-A-K (LIADAK) [SEQ ID NO: 9]
- Inhib by new peptide/Inhib by cytomodulin ([1]; concentration 1 nM): 0.45
- Inhib by new peptide/Inhib by cytomodulin ([1]; concentration 10 nM): 0.87
- Inhib by new peptide/Inhib by cytomodulin ([1]; concentration 100 nM): 1.14
- Inhib by new peptide/Inhib by cytomodulin ([1]; concentration 1000 nM): 1.25

Substance: L-I-A-E-A-A (LIAEAA) [SEQ ID NO: 11]
- Inhib by new peptide/Inhib by cytomodulin ([1]; concentration 1 nM): 1.16
- Inhib by new peptide/Inhib by cytomodulin ([1]; concentration 10 nM): 1.00
- Inhib by new peptide/Inhib by cytomodulin ([1]; concentration 100 nM): 1.17
- Inhib by new peptide/Inhib by cytomodulin ([1]; concentration 1000 nM): 1.85

Substance: L-I-A-E-A-K (LIAEAK) [L2]
- Growth and colony formation in soft agar (NRK-49 F fibroblasts [4]): promoted the growth
- Inhibition of DNA synthesis / proliferation of Mv-1-Lu cells (in words) [1]: inhibited the proliferation
- Expression of TGF-β [5]: increased the expression
- Expression of alkaline phosphatase [5]: increased the expression
- Expression of type I collagen [5]: increased the expression
- TGF-β like activity (overall) (TGF-β activity): at least as much TGF-β like activity as cytomodulin
- Expression of TGF-β (human dermal fibroblasts): increased the expression
- Expression of collagenase (human dermal fibroblasts): decreased the expression
- Expression of type I collagen (human dermal fibroblasts): increased the expression

Substance: L-I-A-G-E-G (LIAGEG) [SEQ ID NO: 14]
- Inhib by new peptide/Inhib by cytomodulin ([1]; concentration 1 nM): 0.66
- Inhib by new peptide/Inhib by cytomodulin ([1]; concentration 10 nM): 0.85
- Inhib by new peptide/Inhib by cytomodulin ([1]; concentration 100 nM): 1.41
- Inhib by new peptide/Inhib by cytomodulin ([1]; concentration 1000 nM): 1.88

Substance: L-I-A-G-G-E (LIAGGE) [SEQ ID NO: 13]
- Inhib by new peptide/Inhib by cytomodulin ([1]; concentration 1 nM): 1.10
- Inhib by new peptide/Inhib by cytomodulin ([1]; concentration 10 nM): 1.33
- Inhib by new peptide/Inhib by cytomodulin ([1]; concentration 100 nM): 1.45
- Inhib by new peptide/Inhib by cytomodulin ([1]; concentration 1000 nM): 1.90

Substance: L-I-A-K-G-K (LIAKGK) [SEQ ID NO: 16]
- Inhib by new peptide/Inhib by cytomodulin ([1]; concentration 10 nM): 0.65
- Inhib by new peptide/Inhib by cytomodulin ([1]; concentration 100 nM): 0.67

Substance: L-I-A-N-A-K (LIANAK) [SEQ ID NO: 10]
- Inhib by new peptide/Inhib by cytomodulin ([1]; concentration 1 nM): 1.70
- Inhib by new peptide/Inhib by cytomodulin ([1]; concentration 10 nM): 2.00
- Inhib by new peptide/Inhib by cytomodulin ([1]; concentration 100 nM): 1.43
- Inhib by new peptide/Inhib by cytomodulin ([1]; concentration 1000 nM): 3.05

Substance: L-I-A-P-E-A (LIAPEA) [L1]
- Growth and colony formation in soft agar (NRK-49 F fibroblasts [4]): promoted the growth
- Inhibition of DNA synthesis / proliferation of Mv-1-Lu cells (in words) [1]: inhibited the proliferation
- Expression of TGF-β [5]: increased the expression
- Expression of alkaline phosphatase [5]: increased the expression
- Expression of type I collagen [5]: increased the expression
- TGF-β like activity (overall) (TGF-β activity): at least as much TGF-β like activity as cytomodulin
- Expression of TGF-β (human dermal fibroblasts): increased the expression
- Expression of collagenase (human dermal fibroblasts): decreased the expression
- Expression of type I collagen (human dermal fibroblasts): increased the expression

Substance: L-I-A-Q-A-K (LIAQAK) [SEQ ID NO: 12]
- Inhib by new peptide/Inhib by cytomodulin ([1]; concentration 1 nM): 0.90
- Inhib by new peptide/Inhib by cytomodulin ([1]; concentration 10 nM): 1.10
- Inhib by new peptide/Inhib by cytomodulin ([1]; concentration 100 nM): 0.80
- Inhib by new peptide/Inhib by cytomodulin ([1]; concentration 1000 nM): 1.56

Substance: TGF-β
- Colony formation in the absence of EGF and PDGF (NRK-49 F fibroblasts [6]): does not induce colony formation
- Growth and colony formation in soft agar (NRK-49 F fibroblasts [4]): grew colonies
